Values quoted from earlier work as cited in patent US20110008495A1, “LIQUID DIETARY SUPPLEMENT COMPOSITION” (NAWGAN PRODUCTS, LLC, priority 2009, published 2011).

Key:
[1] = tested on: individuals diagnosed with mild to moderate Alzheimer's disease
[2] = midlife caffeine consumption
diabetic animals = conditions: long-term consumption in distilled water

C[N+](C)(C)CCOP(=O)([O-])OC[C@H](O)CO [A-GPC, α-glyceryl phosphoryl choline]
absolute magnitude of change in overall cognitive ability (Mini Mental State Exam) ([1]; A-GPC over a 6 month period): offset a full year of typical decline
verbal memory and overall cognitive ability ([1]; A-GPC over a 6 month period vs patients not given A-GPC, 126 individuals): significant improvements

Cn1c(=O)c2c(ncn2C)n(C)c1=O [caffeine]
risk of dementia later in life [2]: significantly reduces

CC(C)=CCC/C(C)=C/C=C/C(C)=C/C=C/C(C)=C/C=C/C=C(C)/C=C/C=C(C)/C=C/C=C(\C)CCC=C(C)C [lycopene]
markers of inflammation and oxidation (diabetic animals): significantly decreased
memory performance (diabetic animals): significantly improved
